In general, Kd refers to the constant that tells how readily two partners part at equilibrium.

This is an account of results in PMC11881452, “Inactivation of NLRP3 inflammasome by dephosphorylation at Serine 658 alleviates glial inflammation in the mouse model of Parkinson’s disease” (Molecular Neurodegeneration, 2025).

The target in assay [1] is T1, NLRP3 (Homo sapiens, UniProt Q96P20). Put plainly: SPR, NLRP3 immobilized on CM5 chip, […] binding model. More on the design: Recombinant human NLRP3 protein (CUSBIO, #CSB-EP822275HU3). A general note: SPR reads the build-up and loss of mass on a sensor chip optically.
Target sequence in this assay (Q96P20 whole entry): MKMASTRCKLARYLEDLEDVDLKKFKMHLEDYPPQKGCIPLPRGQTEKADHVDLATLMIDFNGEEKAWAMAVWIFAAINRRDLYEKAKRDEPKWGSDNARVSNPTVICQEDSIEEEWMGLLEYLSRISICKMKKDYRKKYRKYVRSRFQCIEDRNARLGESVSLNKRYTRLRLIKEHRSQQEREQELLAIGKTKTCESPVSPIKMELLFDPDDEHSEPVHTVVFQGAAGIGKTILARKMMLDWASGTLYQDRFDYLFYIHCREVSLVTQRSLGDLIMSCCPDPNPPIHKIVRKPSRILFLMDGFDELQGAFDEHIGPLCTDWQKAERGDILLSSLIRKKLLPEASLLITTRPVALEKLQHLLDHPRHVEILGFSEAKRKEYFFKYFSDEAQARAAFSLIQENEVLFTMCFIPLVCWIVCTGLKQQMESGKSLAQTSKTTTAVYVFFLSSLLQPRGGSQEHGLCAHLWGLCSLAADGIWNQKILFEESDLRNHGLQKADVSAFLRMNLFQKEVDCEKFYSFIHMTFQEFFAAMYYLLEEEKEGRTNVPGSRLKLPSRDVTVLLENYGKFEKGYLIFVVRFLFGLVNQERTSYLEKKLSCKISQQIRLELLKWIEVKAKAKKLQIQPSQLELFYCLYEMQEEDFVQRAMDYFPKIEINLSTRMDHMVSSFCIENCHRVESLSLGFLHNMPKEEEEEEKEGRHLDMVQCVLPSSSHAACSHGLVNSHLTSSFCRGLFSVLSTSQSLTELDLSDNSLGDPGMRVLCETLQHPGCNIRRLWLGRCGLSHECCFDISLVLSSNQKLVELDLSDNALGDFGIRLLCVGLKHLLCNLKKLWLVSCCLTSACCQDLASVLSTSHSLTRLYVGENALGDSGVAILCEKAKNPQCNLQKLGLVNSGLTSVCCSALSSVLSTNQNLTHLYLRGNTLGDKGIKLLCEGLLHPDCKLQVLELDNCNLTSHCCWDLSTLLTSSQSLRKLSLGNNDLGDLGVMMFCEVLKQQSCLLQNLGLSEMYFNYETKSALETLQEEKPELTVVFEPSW
The target of assay [2] is T1, NLRP3. Briefly: streptavidin pull-down from HEK-293T lysates, Western blot. Also noted: Flag-NLRP3; Flag-NLRP3 (NACHT: 220-536aa); Flag-NLRP3 (LRR: 742-991aa). The class given is cell-based. A general note: In western blotting, separated proteins are transferred to a membrane and probed.
Target sequence in this assay (Q96P20 220-536): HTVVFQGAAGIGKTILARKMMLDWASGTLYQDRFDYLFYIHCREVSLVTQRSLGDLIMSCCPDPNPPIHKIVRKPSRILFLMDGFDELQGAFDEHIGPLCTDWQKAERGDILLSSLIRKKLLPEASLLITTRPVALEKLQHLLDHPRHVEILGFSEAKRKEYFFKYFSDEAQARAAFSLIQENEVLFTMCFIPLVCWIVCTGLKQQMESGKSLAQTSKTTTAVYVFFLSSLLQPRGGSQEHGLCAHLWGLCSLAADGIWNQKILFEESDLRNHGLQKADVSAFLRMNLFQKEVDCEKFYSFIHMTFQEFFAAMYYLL

Regarding `O=c1c2ccccc2nc2n1CCc1c-2[nH]c2ccccc12` [S2349], the Kd at NLRP3 [1] is 146 µM.
The same measure, in the same setting: the result for `O=c1ccc2cc3ccoc3cc2o1` [S4737, Psoralen] reads 209 µM.
Take `O=C1N[C@H]2[C@H](CS[C@H]2CCCCC(=O)Oc2c3occc3cc3ccc(=O)oc23)N1` [Biotinylated-Psoralen]: the “streptavidin pull-down from HEK-293T lysates, Western blot” value on NLRP3 [2] was “Streptavidin pull-down assays showed that Bio-Pso specifically bound to the NACHT and LRR domains, but not the PYD domain”.
